Values after ≈ are worked out from the molar mass of the structure shown.
What was measured:
[1] = molecular target: T1, DNA gyrase (Escherichia coli) (UniProt P0AES6+P0AES4); assay: In vitro inhibitory least concentration which show effect against Escherichia coli HR DNA gyrase; format: protein-complex assay
[2] = molecular target: T1, DNA gyrase (Escherichia coli); assay: In vitro inhibitory concentration which show total effect against Escherichia coli HR DNA gyrase; format: protein-complex assay
Escherichia coli = assay: In vitro antibacterial activity expressed as MIC against Escherichia coli; format: functional
Klebsiella aerogenes [3] = assay: (§1) In vitro antibacterial activity expressed as MIC against Enterobacter aerogenes; format: functional
Enterococcus faecalis = assay: In vitro antibacterial activity expressed as MIC against Enterococcus faecalis; format: functional
Haemophilus influenzae [4] = assay: (§2) In vitro antibacterial activity expressed as MIC against Haemophilus influenzae; format: functional
Klebsiella oxytoca [5] = assay: (§3) In vitro antibacterial activity expressed as MIC against Klebsiella oxytoca; format: functional
Morganella morganii = assay: In vitro antibacterial activity expressed as MIC against Morganella morganii II; format: functional
Pseudomonas aeruginosa = assay: In vitro antibacterial activity expressed as MIC against Pseudomonas aeruginosa; format: functional
Proteus mirabilis [6] = assay: (§4) In vitro antibacterial activity expressed as MIC against Proteus mirabilis; format: functional
[7] = In vitro antibacterial activity expressed as MIC against Clostridium perfringens; format: functional
Providencia rettgeri [8] = assay: (§5) In vitro antibacterial activity expressed as MIC against Providencia rettgeri; format: functional
Providencia stuartii = assay: In vitro antibacterial activity expressed as MIC against Providencia stuartii II; format: functional
Serratia marcescens = assay: In vitro antibacterial activity expressed as MIC against Serratia marcescens; format: functional
[9] = system: Staphylococcus epidermidis; assay: In vitro antibacterial activity expressed as MIC against Staphylococcus epidermidis; format: functional
[10] = molecular target: T1, DNA gyrase (Escherichia coli); assay: In vitro antibacterial activity expressed as MIC against Escherichia coli HR DNA gyrase; format: protein-complex assay
Staphylococcus aureus = assay: In vitro antibacterial activity expressed as MIC against Staphylococcus aureus; format: functional
Streptococcus pneumoniae = assay: In vitro antibacterial activity expressed as MIC against Streptococcus pneumoniae; format: functional
Klebsiella aerogenes [11] = assay: as §1
Haemophilus influenzae [12] = assay: as §2
Proteus mirabilis [13] = assay: as §4
Providencia rettgeri [14] = assay: as §5
Klebsiella oxytoca [15] = assay: as §3

With `N[C@H]1CCN(c2cc(F)c3c(=O)c(C(=O)O)cn(C4CC4)c3c2F)C1` as the molecule, how does the IC0 [1] read?
Its IC0 is 0.32 µg/mL.

And the IC100 [2]?
The IC100 was 10 µg/mL.

And the MIC (Escherichia coli)?
Its MIC is 0.06 µg/mL (≈ 0.172 µM).

And the MIC (Klebsiella aerogenes [3])?
Its MIC is 0.25 µg/mL (≈ 0.716 µM).

And the MIC (Enterococcus faecalis)?
The MIC was 4 µg/mL (≈ 11.5 µM).

What about the MIC (Haemophilus influenzae [4]) of the same molecule?
Its MIC is 0.06 µg/mL (≈ 0.172 µM).

What about the MIC (Klebsiella oxytoca [5]) of the same molecule?
Its MIC is 0.5 µg/mL (≈ 1.43 µM).

And the MIC (Morganella morganii)?
The MIC was 0.06 µg/mL (≈ 0.172 µM).

What about the MIC (Pseudomonas aeruginosa) of the same molecule?
Its MIC is 2 µg/mL (≈ 5.73 µM).

And the MIC (Proteus mirabilis [6])?
Its MIC is 0.13 µg/mL (≈ 0.372 µM).

And the MIC [7]?
Its MIC is 1 µg/mL (≈ 2.86 µM).

And the MIC (Providencia rettgeri [8])?
The MIC was 8 µg/mL (≈ 22.9 µM).

What about the MIC (Providencia stuartii) of the same molecule?
The MIC was 0.5 µg/mL (≈ 1.43 µM).

And the MIC (Serratia marcescens)?
The MIC was 0.25 µg/mL (≈ 0.716 µM).

What about the MIC [9] of the same molecule?
Its MIC is 0.5 µg/mL (≈ 1.43 µM).

What about the MIC [10] of the same molecule?
The MIC was 0.078 µg/mL (≈ 0.223 µM).

What about the MIC (Staphylococcus aureus) of the same molecule?
The MIC was 1 µg/mL (≈ 2.86 µM).

What about the MIC (Streptococcus pneumoniae) of the same molecule?
The MIC was 4 µg/mL (≈ 11.5 µM).

Which IC0 [1] does the source give for `N[C@H]1CCN(c2ccc3c(=O)c(C(=O)O)cn(C4CC4)c3c2)C1` here?
Its IC0 is 0.32 µg/mL.

And the IC100 [2]?
Its IC100 is 20 µg/mL.

And the MIC (Escherichia coli)?
The MIC was 0.03 µg/mL (≈ 0.0957 µM).

What about the MIC (Klebsiella aerogenes [3]) of the same molecule?
Its MIC is 0.06 µg/mL (≈ 0.191 µM).

And the MIC (Enterococcus faecalis)?
The MIC was 4 µg/mL (≈ 12.8 µM).

And the MIC (Haemophilus influenzae [4])?
Its MIC is 0.08 µg/mL (≈ 0.255 µM).

And the MIC (Klebsiella oxytoca [5])?
Its MIC is 0.25 µg/mL (≈ 0.798 µM).

And the MIC (Morganella morganii)?
The MIC was 0.13 µg/mL (≈ 0.415 µM).

And the MIC (Pseudomonas aeruginosa)?
The MIC was 0.5 µg/mL (≈ 1.6 µM).

What about the MIC (Proteus mirabilis [6]) of the same molecule?
The MIC was 0.13 µg/mL (≈ 0.415 µM).

What about the MIC (Providencia rettgeri [8]) of the same molecule?
The MIC was 8 µg/mL (≈ 25.5 µM).

And the MIC (Providencia stuartii)?
The MIC was 1 µg/mL (≈ 3.19 µM).

And the MIC (Serratia marcescens)?
The MIC was 0.5 µg/mL (≈ 1.6 µM).

And the MIC [9]?
The MIC was 0.25 µg/mL (≈ 0.798 µM).

What about the MIC [10] of the same molecule?
Its MIC is 0.009 µg/mL (≈ 0.0287 µM).

And the MIC (Staphylococcus aureus)?
The MIC was 0.5 µg/mL (≈ 1.6 µM).

What about the MIC (Streptococcus pneumoniae) of the same molecule?
The MIC was 2 µg/mL (≈ 6.38 µM).

Which IC0 [1] does the source give for `N[C@H]1CCN(c2cc3c(cc2F)c(=O)c(C(=O)O)cn3C2CC2)C1` here?
Its IC0 is 0.24 µg/mL.

And the IC100 [2]?
Its IC100 is 20 µg/mL.

And the MIC (Escherichia coli)?
Its MIC is 0.008 µg/mL (≈ 0.0241 µM).

What about the MIC (Klebsiella aerogenes [3]) of the same molecule?
Its MIC is 0.016 µg/mL (≈ 0.0483 µM).

And the MIC (Enterococcus faecalis)?
The MIC was 0.25 µg/mL (≈ 0.754 µM).

And the MIC (Haemophilus influenzae [4])?
The MIC was 0.002 µg/mL (≈ 0.00604 µM).

And the MIC (Klebsiella oxytoca [5])?
Its MIC is 0.03 µg/mL (≈ 0.0905 µM).

And the MIC (Morganella morganii)?
The MIC was 0.016 µg/mL (≈ 0.0483 µM).

And the MIC (Pseudomonas aeruginosa)?
Its MIC is 0.25 µg/mL (≈ 0.754 µM).

What about the MIC (Proteus mirabilis [6]) of the same molecule?
The MIC was 0.03 µg/mL (≈ 0.0905 µM).

And the MIC [7]?
The MIC was 0.25 µg/mL (≈ 0.754 µM).

What about the MIC (Providencia rettgeri [8]) of the same molecule?
The MIC was 0.5 µg/mL (≈ 1.51 µM).

And the MIC (Providencia stuartii)?
Its MIC is 0.03 µg/mL (≈ 0.0905 µM).

And the MIC (Serratia marcescens)?
The MIC was 0.03 µg/mL (≈ 0.0905 µM).

What about the MIC [9] of the same molecule?
The MIC was 0.03 µg/mL (≈ 0.0905 µM).

And the MIC [10]?
The MIC was 0.005 µg/mL (≈ 0.0151 µM).

And the MIC (Staphylococcus aureus)?
The MIC was 0.06 µg/mL (≈ 0.181 µM).

What about the MIC (Streptococcus pneumoniae) of the same molecule?
Its MIC is 0.13 µg/mL (≈ 0.392 µM).

Which results are given for `O=C(O)c1cn(C2CC2)c2cc(N3CCNCC3)c(F)cc2c1=O` [CIPROFLOXACIN]?
IC0 [2]: 0.12 µg/mL; IC100 [2]: 10 µg/mL; MIC (Enterococcus faecalis): 0.5 µg/mL (≈ 1.51 µM); MIC (Klebsiella aerogenes [11]): 0.03 µg/mL (≈ 0.0905 µM); MIC (Haemophilus influenzae [12]): 0.03 µg/mL (≈ 0.0905 µM); MIC (Morganella morganii): 0.08 µg/mL (≈ 0.241 µM); MIC (Proteus mirabilis [13]): 0.008 µg/mL (≈ 0.0241 µM); MIC (Providencia stuartii): 0.03 µg/mL (≈ 0.0905 µM); MIC (Providencia rettgeri [14]): 0.5 µg/mL (≈ 1.51 µM); MIC (Serratia marcescens): 0.03 µg/mL (≈ 0.0905 µM); MIC [9]: 0.5 µg/mL (≈ 1.51 µM); MIC [10]: 0.009 µg/mL (≈ 0.0272 µM); MIC (Staphylococcus aureus): 0.25 µg/mL (≈ 0.754 µM); MIC (Streptococcus pneumoniae): 0.25 µg/mL (≈ 0.754 µM); MIC (Klebsiella oxytoca [15]): 0.06 µg/mL (≈ 0.181 µM)

Which results are given for `CCn1cc(C(=O)O)c(=O)c2ccc(C)nc21`?
IC0 [2]: 25 µg/mL; IC100 [2]: 200 µg/mL; MIC [10]: 2.5 µg/mL (≈ 10.8 µM)

With `N[C@H]1CCN(c2cc(F)c3c(=O)c(C(=O)O)cn(C4CC4)c3c2)C1` as the molecule, how does the IC0 [1] read?
The IC0 was 0.64 µg/mL.

And the IC100 [2]?
The IC100 was 20 µg/mL.

And the MIC (Escherichia coli)?
Its MIC is 0.25 µg/mL (≈ 0.754 µM).

What about the MIC (Klebsiella aerogenes [3]) of the same molecule?
Its MIC is 0.5 µg/mL (≈ 1.51 µM).

And the MIC (Enterococcus faecalis)?
Its MIC is 16 µg/mL (≈ 48.3 µM).

And the MIC (Haemophilus influenzae [4])?
Its MIC is 0.13 µg/mL (≈ 0.392 µM).

And the MIC (Klebsiella oxytoca [5])?
The MIC was 1 µg/mL (≈ 3.02 µM).

And the MIC (Morganella morganii)?
Its MIC is 0.25 µg/mL (≈ 0.754 µM).

And the MIC (Pseudomonas aeruginosa)?
Its MIC is 4 µg/mL (≈ 12.1 µM).

What about the MIC (Proteus mirabilis [6]) of the same molecule?
Its MIC is 0.5 µg/mL (≈ 1.51 µM).

What about the MIC (Providencia rettgeri [8]) of the same molecule?
Its MIC is 16 µg/mL (≈ 48.3 µM).

What about the MIC (Providencia stuartii) of the same molecule?
The MIC was 1 µg/mL (≈ 3.02 µM).

What about the MIC (Serratia marcescens) of the same molecule?
The MIC was 0.5 µg/mL (≈ 1.51 µM).

What about the MIC [9] of the same molecule?
Its MIC is 8 µg/mL (≈ 24.1 µM).

And the MIC [10]?
Its MIC is 0.156 µg/mL (≈ 0.471 µM).

And the MIC (Staphylococcus aureus)?
The MIC was 8 µg/mL (≈ 24.1 µM).

And the MIC (Streptococcus pneumoniae)?
Its MIC is 4 µg/mL (≈ 12.1 µM).

For `N[C@H]1CCN(c2ccc3c(=O)c(C(=O)O)cn(C4CC4)c3c2F)C1`, which IC0 [1] is on record?
Its IC0 is 0.32 µg/mL.

And the IC100 [2]?
Its IC100 is 10 µg/mL.

And the MIC (Escherichia coli)?
The MIC was 0.007 µg/mL (≈ 0.0211 µM).

What about the MIC (Klebsiella aerogenes [3]) of the same molecule?
The MIC was 0.03 µg/mL (≈ 0.0905 µM).

And the MIC (Enterococcus faecalis)?
The MIC was 0.25 µg/mL (≈ 0.754 µM).

What about the MIC (Haemophilus influenzae [4]) of the same molecule?
The MIC was 0.007 µg/mL (≈ 0.0211 µM).

What about the MIC (Klebsiella oxytoca [5]) of the same molecule?
The MIC was 0.06 µg/mL (≈ 0.181 µM).

What about the MIC (Morganella morganii) of the same molecule?
The MIC was 0.015 µg/mL (≈ 0.0453 µM).

And the MIC (Pseudomonas aeruginosa)?
The MIC was 0.25 µg/mL (≈ 0.754 µM).

And the MIC (Proteus mirabilis [6])?
Its MIC is 0.03 µg/mL (≈ 0.0905 µM).

And the MIC [7]?
Its MIC is 0.5 µg/mL (≈ 1.51 µM).

What about the MIC (Providencia rettgeri [8]) of the same molecule?
The MIC was 1 µg/mL (≈ 3.02 µM).

And the MIC (Providencia stuartii)?
Its MIC is 0.06 µg/mL (≈ 0.181 µM).

What about the MIC (Serratia marcescens) of the same molecule?
Its MIC is 0.03 µg/mL (≈ 0.0905 µM).

What about the MIC [9] of the same molecule?
Its MIC is 0.125 µg/mL (≈ 0.377 µM).

What about the MIC [10] of the same molecule?
Its MIC is 0.009 µg/mL (≈ 0.0272 µM).

What about the MIC (Staphylococcus aureus) of the same molecule?
Its MIC is 0.06 µg/mL (≈ 0.181 µM).

What about the MIC (Streptococcus pneumoniae) of the same molecule?
The MIC was 0.5 µg/mL (≈ 1.51 µM).

Which IC0 [2] does the source give for `CCn1cc(C(=O)O)c(=O)c2cc(F)c(N3CCN(C)CC3)cc21` here?
Its IC0 is 0.64 µg/mL.

And the IC100 [2]?
Its IC100 is 20 µg/mL.

What about the MIC [10] of the same molecule?
The MIC was 0.019 µg/mL (≈ 0.057 µM).

From ChEMBL document CHEMBL1149932, “DNA - gyrase inhibition and antibacterial activity of fluoro-quinolones: influence of the position of the fluorine(s)” (1992)
